These results are taken from ChEMBL document CHEMBL1201862, “PubChem BioAssay data set” (2004).

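Each compound was tested at five concentrations against cells in 96-well plates for 48 hours. GI50 = concentration required for 50% inhibition of growth.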 Activity calls are given as the source filed them. No stated cut-off is given here; in the data, active = GI50 up to about 1.1 µM and inactive = higher.

Holding throughout (test): NCI anticancer screen, dose series, 48 h
Assay [1] deals with MDA-MB-231.
Assay [2] has as its system U-251.
Assay [3] concerns DU-145.
Assay [4] concerns PC-3.
For assay [5], the system named is MDA-MB-435.
For assay [6], the system named is UACC-62.
In assay [7] the test system is MDA-N.
The subject of assay [8] is OVCAR-3.
Assay [9] deals with TK-10.
Assay [10] deals with SF-268.
The subject of assay [11] is M14.
Assay [12] concerns SK-OV-3.
For assay [13], the system named is CAKI-1.
In assay [14] the test system is 786-0.

With `C=CC1OC(CCCOC(=O)C(C)(C)C)O[C@@H]1CC` (some centres not stated), the GI50 in assay [1], in assay [2], in [3], in [4], in assay [5] and in assay [6] was > 100 µM (inactive) in each case. The GI50 in assay [7], in assay [8], in [9], in assay [10], in assay [11] and in assay [12] was > 100 µM (inactive) each time. Besides, the GI50 in assay [13] was > 100 µM (inactive).

With `Cc1cn(C2CCN(CC3COC(C)(C)O3)O2)c(=O)[nH]c1=O` (configuration not stated), the GI50 in [1], in [2], in assay [3], in assay [4], in assay [5] and in [6] was > 100 µM (inactive) each time. For the same compound, the GI50 in assay [7], in assay [8], in assay [9], in assay [10], in assay [11] and in assay [14] was > 100 µM (inactive) in each case. In addition, the GI50 in [12] and in assay [13] was > 100 µM (inactive) in each case.

On to `CCOC(=O)c1nc2ccccc2nc1Nc1ccc(C(=O)OC)s1`, for which the GI50 in assay [1], in assay [2], in assay [3], in assay [4], in [5] and in assay [6] was > 100 µM (inactive) throughout. Besides, the GI50 in [7], in [8], in [9], in assay [10], in assay [11] and in assay [14] was > 100 µM (inactive) throughout. In assay [13], the GI50 is > 100 µM (inactive).

Turning to `N#CC1(C#N)N[C@@H](c2ccsc2)[C@H]2C(=O)N(c3ccccc3)C(=O)[C@H]21`, the GI50 in [1] is 61 µM (inactive); in [2] it was 77.6 µM (inactive); in assay [3], 66.4 µM (inactive); in assay [4], 53.7 µM (inactive); in [5], 45.7 µM (inactive); in assay [6], 28.8 µM (inactive). In addition, the GI50 in assay [7] was 38.3 µM (inactive); in [8], > 100 µM (inactive); in assay [9], > 100 µM (inactive); in assay [10], 84.5 µM (inactive); in [14], > 100 µM (inactive); in assay [12], > 100 µM (inactive). The GI50 in assay [13] is 43 µM (inactive).

`Cc1c(Cl)nc(Nc2nc3ccccc3[nH]2)nc1Cl`: the GI50 in [2] was > 100 µM (inactive); in assay [3], 39.4 µM (inactive); in assay [4], > 100 µM (inactive); in [5], > 100 µM (inactive); in assay [6], > 100 µM (inactive); in assay [7], > 100 µM (inactive). Further, the GI50 in assay [9] was > 100 µM (inactive); in [10] it was 47.6 µM (inactive); in [11], > 100 µM (inactive); in assay [14], 59.4 µM (inactive); in assay [12], > 100 µM (inactive); in [13] it was 6.71 µM (inactive).

Turning to `C[n+]1c2ccccc2n2c3ccccc3c(NCCCn3ccnc3)c(C#N)c21`, the GI50 in [1] was 2.65 µM (inactive); in assay [2], 2.18 µM (inactive); in assay [3] it was 2.77 µM (inactive); in [4] it was 2.02 µM (inactive); in assay [5], 2.23 µM (inactive); in assay [6] it was 2.74 µM (inactive). Further, the GI50 was 2.7 µM (inactive) in assay [7]; 2.36 µM (inactive) in [8]; 7.11 µM (inactive) in assay [9]; 1.44 µM (inactive) in assay [10]; 2.26 µM (inactive) in assay [11]; 2.04 µM (inactive) in assay [14]. The results for the GI50 in assay [12] and in assay [13] were 3.54 µM (inactive) and 10.5 µM (inactive), respectively.

On to `Nc1ccn(C2OC(CO)C(O)C2(F)F)c(=O)n1` (configuration not stated), for which the GI50 in assay [1] was 0.828 µM (active); in assay [2], 0.162 µM (active); in [3], 0.179 µM (active); in assay [4], 0.885 µM (active); in assay [5], 0.384 µM (active); in assay [6] it was 0.127 µM (active). Further, the GI50 in [7] was 0.237 µM (active); in assay [8], 1.88 µM (inactive); in [10] it was 0.226 µM (active); in assay [11], 0.0313 µM (active); in assay [14], 0.055 µM (active); in [12], 0.667 µM (active). For the same compound, the GI50 in [13] is 0.108 µM (active).

In the case of `CCOC(=O)c1c(NC(=O)Nc2ccccc2)c(C(N)=O)c2n1CCCCC2`, the GI50 in [1], in assay [2], in assay [3], in assay [4], in [5] and in [6] was > 100 µM (inactive) throughout. For the same compound, the GI50 in assay [9], in assay [10], in [11], in assay [14], in assay [12] and in [13] was > 100 µM (inactive) in each case.

`CCOP(=O)(COCCn1nc(Br)c(=O)[nH]c1=O)OCC`: the GI50 in assay [1], in assay [2], in assay [3], in [4], in [5] and in [7] was > 100 µM (inactive) in each case. For the same compound, the GI50 in assay [8], in assay [10], in assay [11] and in [13] was > 100 µM (inactive) throughout.

Take `Cc1cccc(C(O)c2ccccn2)c1O` (configuration not stated): the GI50 in assay [1] is > 100 µM (inactive); in assay [2], > 100 µM (inactive); in assay [3] it was > 100 µM (inactive); in assay [4], > 100 µM (inactive); in [5], > 100 µM (inactive); in [6] it was 74.6 µM (inactive). The GI50 in assay [7], in [8], in assay [9], in assay [10] and in assay [13] was > 100 µM (inactive) in each case.

In the case of `COc1cc(C2S/C(=C/c3ccccc3)C(=O)N2c2cccc(NC(C)=O)c2)cc(OC)c1OC` (configuration not stated), the GI50 in assay [1] was 13.9 µM (inactive); in assay [2], 17.6 µM (inactive); in assay [4], 14.1 µM (inactive); in assay [5], 18.3 µM (inactive); in [6], 29.1 µM (inactive); in assay [7], 26.7 µM (inactive). Further, the GI50 in [9] was 80.5 µM (inactive); in [10] it was 24.1 µM (inactive); in [11], 34.4 µM (inactive); in [12] it was 56 µM (inactive); in assay [13], 25.9 µM (inactive).

Take `CN1C[C@H]2[C@@H](C1=O)[C@H](c1ccc([N+](=O)[O-])cc1)ON2C`: the GI50 in [1], in assay [2], in assay [3], in assay [4], in assay [5] and in assay [7] was > 100 µM (inactive) in each case. Also, the GI50 in assay [8], in [9], in assay [11], in assay [12] and in assay [13] was > 100 µM (inactive) each time.

In the case of `Cc1ccc(C2=C(C#N)C(N)OC3=C2COc2ccccc23)cc1` (configuration not stated), the GI50 was 23.7 µM (inactive) in [1]; 19.5 µM (inactive) in assay [2]; 17.6 µM (inactive) in assay [3]; 18.9 µM (inactive) in assay [4]; 51.9 µM (inactive) in assay [5]; 78 µM (inactive) in assay [6]. For the same compound, the GI50 in assay [7] was 44.2 µM (inactive); in assay [8], 17 µM (inactive); in [9], 17.2 µM (inactive); in [10], 27 µM (inactive); in [11], > 100 µM (inactive); in assay [12], 25.9 µM (inactive).

On to `O=C1/C(=C\c2cccc(Oc3ccccc3)c2)SC(c2ccccc2)N1Cc1ccccc1` (configuration not stated), for which the GI50 in [1] is 32.9 µM (inactive); in assay [2], 18.4 µM (inactive); in assay [3] it was 34.9 µM (inactive); in assay [5], 23.3 µM (inactive); in assay [6] it was 29.3 µM (inactive); in [7] it was 17 µM (inactive). For the same compound, the GI50 in assay [8] is 23.5 µM (inactive); in [9], 32.1 µM (inactive); in assay [10], 35 µM (inactive); in assay [11] it was 22.4 µM (inactive); in [14], 34.8 µM (inactive); in assay [12], 19.1 µM (inactive). For the same compound, the GI50 in assay [13] is 49.7 µM (inactive).

Take `CC(=O)O[C@H]1C[C@]2(C)C(CCC3O[C@@]32C)[C@@]2(CC(c3ccoc3)OC2O)[C@@H]1C` (some centres not stated): the GI50 was > 100 µM (inactive) in assay [1]; > 100 µM (inactive) in assay [2]; > 100 µM (inactive) in assay [3]; 50.1 µM (inactive) in [4]; 86.7 µM (inactive) in assay [5]; 37.6 µM (inactive) in assay [6]. For the same compound, the GI50 is > 100 µM (inactive) in assay [7]; 60.7 µM (inactive) in assay [8]; > 100 µM (inactive) in assay [9]; > 100 µM (inactive) in [10]; > 100 µM (inactive) in assay [11]; > 100 µM (inactive) in assay [14]. The GI50 in assay [12] and in assay [13] was > 100 µM (inactive) in each case.

For the compound `Cc1cc(O)c(C(C)C)cc1SC#N`, the GI50 in assay [1] was 18.5 µM (inactive); in assay [2] it was 16.9 µM (inactive); in [3], 15.5 µM (inactive); in assay [4] it was 17.1 µM (inactive); in [5], 13.7 µM (inactive); in assay [6], 14.6 µM (inactive). For the same compound, the GI50 is 15.5 µM (inactive) in assay [8]; 16.9 µM (inactive) in [9]; 19.3 µM (inactive) in [10]; 21 µM (inactive) in assay [12]; 15 µM (inactive) in assay [13].
